# Reference: ChEMBL document CHEMBL1135798, “Structure-activity relationships of the antimalarial agent artemisinin. 6. The development of predictive in vitro potency models using CoMFA and HQSAR methodologies” (2002)
# Tested on: Plasmodium falciparum
# Test: Antimalarial activity against chloroquine-resistant, mefloquine-sensitive Plasmodium falciparum W2
# Assay type: functional
row,Compound,Log RA
1,COC(=O)[C@H](C)COC1O[C@@H]2O[C@@]3(C)CC[C@H]4[C@H](C)CC[C@@H]([C@H]1C)[C@@]24OO3 (stereo partly specified),2.25
2,CCCC[C@H]1C(=O)O[C@@H]2O[C@@]3(CCCC)CC[C@H]4[C@H](C)CC[C@@H]1[C@@]24OO3,-0.48
3,CCOC(=O)[C@H](O[C@H]1O[C@@H]2O[C@@]3(C)CC[C@H]4[C@H](C)CC[C@@H]([C@H]1C)[C@@]24OO3)c1ccccc1,0.87
4,CCO[C@H]1O[C@@H]2O[C@@]3(C)CC[C@H]4C(C)=C(F)C[C@@H]([C@H]1C)[C@@]24OO3,-0.12
5,COC1O[C@@H]2O[C@@]3(C)CC[C@H]4[C@H](C)CC[C@@H]([C@H]1C)[C@@]24OO3 (stereo partly specified),0.28
6,C[C@@H]1CC[C@H]2CC(=O)O[C@@H]3O[C@@]4(CCCc5ccc(Cl)cc5)CC[C@@H]1[C@@]23OO4,0.1
7,C=CCOCC[C@@H]1CCC[C@@H]2CC[C@@]3(C)OO[C@]21[C@@H](OC)O3,0.4
8,CCC[C@@]12CC[C@H]3[C@H](C)CC[C@H]4CCO[C@H](O1)[C@]43OO2,0.84
9,CC[C@@]12CC[C@H]3[C@H](C)CC[C@H]4CCO[C@H](O1)[C@]43OO2,-1
10,O=S(=O)(c1ccccc1)N1C[C@]2(c3ccccc3)CC[C@@](c3ccccc3)(C1)OO2,-2.26
11,C[C@@H]1CC[C@@H]2[C@]34OO[C@](C)(CC[C@@H]13)O[C@H]4OC(O)[C@@]21CO1 (stereo partly specified),-0.62
12,CC1(C)C[C@]2(c3ccccc3)CC[C@@](c3ccccc3)(C1)OO2,-2.17
13,C[C@@H]1CC[C@@H]2[C@]34OO[C@](C)(CC[C@@H]13)O[C@H]4OC(O)[C@]21CO1 (stereo partly specified),-0.57
14,CCO[C@H]1O[C@@H]2O[C@@]3(C)CC[C@H]4[C@H](C)CC[C@@H]([C@H]1C)[C@@]24O3,-4
15,C[C@@H]1CC[C@H]2[C@@H](C)C(=O)N(Cc3ccccn3)[C@@H]3O[C@@]4(C)CC[C@@H]1[C@@]23O4,-4
16,C[C@@H]1CC[C@@H]2[C@]34OO[C@](C)(CC[C@@H]13)O[C@H]4OC(Nc1ccccc1)[C@@]2(C)Br (stereo partly specified),0.18

row,Compound,Log RA
1,CCOC(=O)[C@@H](O[C@H]1O[C@@H]2O[C@@]3(C)CC[C@H]4[C@H](C)CC[C@@H]([C@H]1C)[C@@]24OO3)c1ccccc1,1.25
2,C[C@@H]1CC[C@H]2[C@@H](CCCc3ccccc3)C(=O)O[C@@H]3O[C@@]4(C)CC[C@@H]1[C@]32OO4,0.78
3,CCOC1C[C@@H]2CC[C@@H](C)[C@@H]3CC[C@@]4(C)OO[C@@]23[C@H](O1)O4 (stereo partly specified),0.43
4,CCCC(=O)OCC(CC)(CC)OOC(C)(C)C,-4
5,COC(=O)[C@@H](C)COC1O[C@@H]2O[C@@]3(C)CC[C@H]4[C@H](C)CC[C@@H]([C@H]1C)[C@@]24OO3 (stereo partly specified),1.79
6,CCOC(=O)CC[C@@]12CC[C@H]3[C@H](C)CC[C@H]4CCO[C@H](O1)[C@]43OO2,0.7
7,COC(=O)CCCOC1O[C@@H]2O[C@@]3(C)CC[C@H]4[C@H](C)CC[C@@H]([C@H]1C)[C@@]24OO3 (stereo partly specified),-0.03
8,CCCCC[C@H]1C(=O)O[C@@H]2O[C@@]3(C)CC[C@H]4[C@H](C)CC[C@@H]1[C@@]24OO3,1.02
9,CO[C@H]1O[C@@]2(C)CC[C@H]3CCC[C@@H](CCOCc4ccccn4)[C@]31OO2,0.17
10,C[C@@H]1CC[C@H]2[C@@H](CCc3ccccc3)C(=O)O[C@@H]3O[C@@]4(C)CC[C@@H]1[C@]32O4,-4
11,CCOC(=O)C[C@H](O[C@H]1O[C@@H]2O[C@@]3(C)CC[C@H]4[C@H](C)CC[C@@H]([C@H]1C)[C@@]24OO3)c1ccccc1,0.9
12,CCCCC[C@H]1CO[C@@H]2O[C@@]3(C)CC[C@H]4[C@H](C)CC[C@@H]1[C@@]24OO3,0.16
13,C[C@@H]1CC[C@H]2[C@@H](CCCCc3ccccc3)C(=O)O[C@@H]3O[C@@]4(C)CC[C@@H]1[C@]32O4,-4
14,CCC[C@@H](Cc1ccccc1)OC1O[C@@H]2O[C@@]3(C)CC[C@H]4[C@H](C)CC[C@@H]([C@H]1C)[C@@]24OO3 (stereo partly specified),0.31
15,CO[C@H]1O[C@@]2(C)CC[C@H]3CCC[C@@H](CCOC(=O)c4ccccc4)[C@]31OO2,-0.59
